Source: patent US20080171783A1, “COMPOSITIONS AND METHODS FOR TREATING HYPERPROLIFERATIVE DISEASE” (Migenix Inc., priority 2006, published 2008)

Tests used:
human polymerase alpha = target: T1, human polymerase alpha (Homo sapiens, UniProt P09884); assay: Homotemplate enzymatic assay, polymerase alpha; format: biochemical; conditions: four concentrations, homotemplate format
T1 construct: purchased Replizyme Ltd (Heslington, York, UK)
T1 sequence (P09884 1-1462): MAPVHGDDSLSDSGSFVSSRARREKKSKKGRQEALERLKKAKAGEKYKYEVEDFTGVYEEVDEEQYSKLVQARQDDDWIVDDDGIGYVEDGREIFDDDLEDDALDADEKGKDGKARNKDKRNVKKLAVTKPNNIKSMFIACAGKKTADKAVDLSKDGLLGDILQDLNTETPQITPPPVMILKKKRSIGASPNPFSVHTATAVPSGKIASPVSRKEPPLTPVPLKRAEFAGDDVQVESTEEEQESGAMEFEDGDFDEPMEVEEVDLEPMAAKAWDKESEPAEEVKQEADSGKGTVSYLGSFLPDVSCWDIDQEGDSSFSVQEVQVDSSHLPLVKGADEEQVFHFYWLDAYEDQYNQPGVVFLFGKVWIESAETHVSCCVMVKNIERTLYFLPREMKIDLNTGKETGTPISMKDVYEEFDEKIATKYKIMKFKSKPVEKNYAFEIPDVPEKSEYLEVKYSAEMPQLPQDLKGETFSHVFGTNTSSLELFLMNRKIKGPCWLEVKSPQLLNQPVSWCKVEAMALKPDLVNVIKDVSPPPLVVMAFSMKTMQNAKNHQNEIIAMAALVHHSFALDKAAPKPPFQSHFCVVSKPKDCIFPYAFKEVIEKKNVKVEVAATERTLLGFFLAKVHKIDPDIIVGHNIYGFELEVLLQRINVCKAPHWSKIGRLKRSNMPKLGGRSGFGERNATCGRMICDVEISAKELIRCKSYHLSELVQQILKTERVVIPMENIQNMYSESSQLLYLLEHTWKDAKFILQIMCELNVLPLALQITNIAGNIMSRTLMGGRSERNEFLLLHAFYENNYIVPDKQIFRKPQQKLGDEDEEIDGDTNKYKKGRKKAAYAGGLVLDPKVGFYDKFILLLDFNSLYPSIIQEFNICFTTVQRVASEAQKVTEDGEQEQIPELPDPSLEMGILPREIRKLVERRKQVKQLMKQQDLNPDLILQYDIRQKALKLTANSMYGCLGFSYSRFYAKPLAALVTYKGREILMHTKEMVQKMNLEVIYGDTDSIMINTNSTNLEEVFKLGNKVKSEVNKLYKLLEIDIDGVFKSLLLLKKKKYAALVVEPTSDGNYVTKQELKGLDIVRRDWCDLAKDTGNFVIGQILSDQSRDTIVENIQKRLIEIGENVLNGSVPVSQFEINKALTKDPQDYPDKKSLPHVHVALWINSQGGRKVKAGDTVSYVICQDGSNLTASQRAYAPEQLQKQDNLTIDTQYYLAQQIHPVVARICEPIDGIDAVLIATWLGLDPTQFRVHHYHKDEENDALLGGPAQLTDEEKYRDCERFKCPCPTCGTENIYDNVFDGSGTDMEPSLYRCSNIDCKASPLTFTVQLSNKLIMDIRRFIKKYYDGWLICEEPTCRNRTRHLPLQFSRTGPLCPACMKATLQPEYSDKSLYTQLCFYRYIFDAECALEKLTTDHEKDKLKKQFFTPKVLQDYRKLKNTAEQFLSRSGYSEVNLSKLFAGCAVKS
Protocol: (§1) To test for selectivity, an enzymatic assay of activity in human polymerase alpha and human polymerase gamma was performed using a homotemplate assay format (Replizyme Ltd., Heslington, York, UK). The IC50 was measured by testing four different concentrations of a selected compound as compared to an untreated control.

human polymerase gamma = target: T2, human polymerase gamma (Homo sapiens, UniProt P54098); assay: Homotemplate enzymatic assay, polymerase gamma; format: biochemical; conditions: four concentrations, homotemplate format
T2 construct: purchased Replizyme Ltd., Heslington, York, UK
T2 sequence (P54098 1-1239): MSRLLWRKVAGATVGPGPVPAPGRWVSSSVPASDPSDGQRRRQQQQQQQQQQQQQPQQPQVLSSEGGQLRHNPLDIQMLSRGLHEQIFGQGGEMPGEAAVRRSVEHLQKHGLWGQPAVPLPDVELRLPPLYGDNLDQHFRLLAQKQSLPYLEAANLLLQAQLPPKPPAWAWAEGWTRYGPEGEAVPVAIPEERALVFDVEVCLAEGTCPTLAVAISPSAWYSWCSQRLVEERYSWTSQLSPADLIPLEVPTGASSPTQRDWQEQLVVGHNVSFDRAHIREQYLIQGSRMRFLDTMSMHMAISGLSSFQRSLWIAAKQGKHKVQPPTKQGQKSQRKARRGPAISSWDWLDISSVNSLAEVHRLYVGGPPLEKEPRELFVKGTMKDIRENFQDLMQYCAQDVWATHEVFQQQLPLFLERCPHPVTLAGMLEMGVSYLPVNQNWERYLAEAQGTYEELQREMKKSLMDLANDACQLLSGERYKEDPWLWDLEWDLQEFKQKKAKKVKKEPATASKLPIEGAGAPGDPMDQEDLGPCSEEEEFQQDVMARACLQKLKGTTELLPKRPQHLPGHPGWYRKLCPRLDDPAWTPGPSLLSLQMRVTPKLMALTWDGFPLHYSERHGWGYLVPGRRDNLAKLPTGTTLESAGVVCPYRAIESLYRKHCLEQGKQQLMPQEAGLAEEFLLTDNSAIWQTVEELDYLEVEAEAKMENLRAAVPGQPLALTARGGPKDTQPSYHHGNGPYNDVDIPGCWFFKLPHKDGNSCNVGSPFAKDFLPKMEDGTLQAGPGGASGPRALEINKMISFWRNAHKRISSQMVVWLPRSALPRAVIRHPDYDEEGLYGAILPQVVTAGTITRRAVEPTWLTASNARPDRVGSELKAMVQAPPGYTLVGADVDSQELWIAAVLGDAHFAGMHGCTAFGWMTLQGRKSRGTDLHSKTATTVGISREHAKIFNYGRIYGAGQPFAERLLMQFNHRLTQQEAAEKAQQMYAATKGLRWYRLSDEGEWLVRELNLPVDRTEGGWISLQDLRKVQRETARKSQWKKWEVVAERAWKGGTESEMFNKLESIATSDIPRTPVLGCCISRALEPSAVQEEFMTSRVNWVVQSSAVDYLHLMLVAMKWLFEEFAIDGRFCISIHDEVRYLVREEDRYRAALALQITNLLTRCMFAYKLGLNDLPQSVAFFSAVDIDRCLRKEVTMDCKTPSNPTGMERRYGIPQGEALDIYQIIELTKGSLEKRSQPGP
Protocol: as §1

Row | IC50 (human polymerase alpha) | IC50 (human polymerase gamma) | SMILES
1 | < 4 µM | 27 µM | Cc1ccc(NC(=O)[C@H](CCCCN)NC(=O)Nc2ccc(OCc3ccccc3)cc2)cc1 [Compound 2, (S)-6-AMINO-2-[3-(4-BENZYLOXY-PHENYL)-UREIDO]-HEXANOIC ACID P-TOLYLAMIDE]
2 | ~4 µM | 32 µM | COC(=O)c1ccc(COc2ccc(NC(=O)N[C@@H](CCCCN)C(=O)Nc3ccc(C)cc3)cc2)cc1 [Compound 199, (S)-4-{4-[3-(5-AMINO-1-P-TOLYLCARBAMOYL-PENTYL)-UREIDO]-PHENOXYMETHYL}-BENZOIC ACID METHYL ESTER]
3 | < 4 µM | 13 µM | Cc1cc2cc(NC(=O)[C@H](CCCNC(=O)CN)NC(=O)Nc3ccc4c(c3)Cc3ccccc3-4)ccc2[nH]1 [Compound 297, (S)-5-(2-AMINO-ACETYLAMINO)-2-[3-(9H-FLUOREN-2-YL)-UREIDO]-PENTANOIC ACID (2-METHYL-1H-INDOL-5-YL)-AMIDE]

Row | SMILES | IC50 (human polymerase alpha) | IC50 (human polymerase gamma)
4 | Cc1ccc(NC(=O)[C@@H](CCCCN)NC(=O)Nc2ccc3c(c2)Cc2ccccc2-3)cc1 [Compound 173, (R)-6-AMINO-2-[3-(9H-FLUOREN-2-YL)-UREIDO]-HEXANOIC ACID P-TOLYLAMIDE] | < 4 µM | 16 µM
